Assay results as given in the supplement of paper PMC10307832.

Key:
AZ3146 = compound: CN1CCC(CC1)OC2=CC(=C(C=C2)NC3=NC=C4C(=N3)N(C(=O)N4C)C5CCCC5)OC [AZ3146]; experiment: relative viability (nuclei count vs DMSO), 5 days (fraction); higher = more cells survive
Method in brief: (§1)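 Only plates meeting two conditions passed: control CV below 25% and at least one doubling. Lung cancer cell lines, kept overnight at 37 °C in 1536-well plates, were pinned with five library-drug doses (not always all listed) √10 apart on vehicle-anchored plates and grown 5 days without medium change. A one-step fix, permeabilisation and Hoechst stain preceded 4× imaging and MetaXpress nuclear counting. Viability equals treated-well nuclei divided by vehicle-well nuclei, as the median over plates.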

GSK-J4 = compound: CCOC(=O)CCNc1cc(N2CCc3ccccc3CC2)nc(-c2ccccn2)n1 [GSK-J4]; experiment: as above
Method in brief: as §1

| Cell Line | relative viability (AZ3146; 0.08 µM) | relative viability (AZ3146; 0.253 µM) | relative viability (AZ3146; 0.8 µM) | relative viability (AZ3146; 2.53 µM) | relative viability (AZ3146; 8 µM) | relative viability (GSK-J4; 0.5 µM) | relative viability (GSK-J4; 1.581 µM) | relative viability (GSK-J4; 5 µM) | relative viability (GSK-J4; 15.81 µM) | relative viability (GSK-J4; 50 µM) |
| --- | --- | --- | --- | --- | --- | --- | --- | --- | --- | --- |
| 201T | 0.997 | 0.993 | 0.941 | 0.964 | 0.983 | 1.01 | 0.983 | 0.928 | 0.947 | 0.943 |
| A549 | 0.852 | 0.988 | 1.03 | 0.952 | 0.462 | 0.981 | 0.731 | 0.862 | 0.838 | 0.924 |
| A-427 | 0.963 | 1 | 1.01 | 1.04 | 0.766 | 1 |  | 0.766 | 0.865 | 0.37 |
| ABC-1 | 0.892 | 0.901 | 1.02 | 1.02 | 0.867 | 1.04 | 0.869 | 0.803 | 0.797 | 0.403 |
| BEN |  | 0.898 | 0.886 | 0.989 | 0.943 | 1.06 | 0.864 |  | 0.876 | 0.788 |
| CAL-12T | 1.03 | 0.978 | 1.07 | 1.09 | 0.776 | 0.94 | 0.838 | 1.05 | 0.93 | 0.834 |
| COR-L23 | 0.928 | 1.03 | 1.03 | 0.974 | 0.977 | 0.965 | 0.894 |  | 1 | 0.852 |
| COR-L 105 | 0.82 | 0.874 | 0.939 | 0.825 | 0.504 | 0.925 | 0.864 | 0.795 | 0.949 | 0.861 |
| Calu-6 | 0.964 | 1.03 | 0.948 | 0.948 | 0.799 | 0.979 | 0.945 | 0.941 | 0.983 | 1.01 |
| ChaGo-K-1 | 0.942 | 0.885 | 0.964 | 1.04 | 0.741 | 0.986 |  | 0.993 | 0.974 | 0.918 |
| EBC-1 | 0.915 | 0.938 | 0.884 | 0.979 | 0.602 | 0.817 | 0.892 | 0.96 | 0.961 | 0.668 |
| EKVX | 0.954 | 0.999 | 0.93 | 1 | 1.04 | 0.998 | 0.71 | 1.03 | 0.85 | 0.898 |
| EMC-BAC-2 | 0.772 | 0.76 | 1.07 | 1.1 | 0.907 | 0.971 | 0.909 | 0.647 | 0.882 | 0.955 |
| EPLC-272H | 0.789 | 0.895 | 0.92 | 0.992 | 0.969 | 0.994 | 0.678 | 0.93 | 0.814 | 0.734 |
| H3255 | 0.935 | 0.902 | 1.01 | 1.09 | 0.981 | 0.997 | 0.869 | 0.91 | 0.811 | 0.854 |
| HARA | 0.808 | 0.902 | 1.01 | 1.07 | 0.866 | 1.06 | 0.959 |  | 0.881 | 1.05 |
| HCC-15 | 0.98 | 1.05 | 0.993 | 1.03 | 0.99 | 0.929 | 0.716 | 0.927 | 0.895 | 0.767 |
| HCC-44 | 0.969 | 0.917 | 1.09 | 1.02 | 0.89 | 1.01 | 0.864 | 0.861 | 1.02 | 1.01 |
| HCC-78 |  | 1.01 | 0.864 | 0.989 | 0.956 | 1.06 | 0.946 | 1.14 | 0.728 | 0.92 |
| HCC-366 | 0.9 | 0.939 | 1.02 | 0.973 | 0.988 | 1.03 | 0.851 |  | 0.988 | 0.989 |
| HCC-827 | 1.04 | 0.998 | 0.987 | 0.939 | 1.04 | 1.01 | 0.902 | 0.839 | 1 | 1.02 |
| HOP-62 | 0.958 | 0.986 | 0.98 | 1.03 | 0.956 | 1 | 0.835 | 1.04 | 0.987 | 0.749 |
| IA-LM | 0.971 | 0.998 | 0.987 | 0.957 | 0.742 | 0.887 | 0.84 | 1.17 | 0.821 | 0.315 |
| LC-2-ad | 0.895 | 1.04 | 0.979 | 0.967 | 0.91 | 0.988 | 0.807 | 0.787 | 0.933 | 0.903 |
| LCLC-97TM1 | 0.836 | 1.01 | 0.932 | 1.1 | 0.751 | 0.865 | 0.753 | 1.05 | 0.608 | 0.755 |
| LCLC-103H | 0.974 | 0.949 | 0.974 | 0.995 | 0.965 | 1.07 | 0.883 | 0.908 | 0.954 | 0.94 |
| LK-2 | 0.743 | 0.782 | 0.961 | 1.08 | 1.05 | 1.07 | 0.886 | 1.22 | 0.756 | 1 |
| LOU-NH91 | 1.01 | 0.935 | 0.957 | 0.986 | 0.96 | 1.12 | 1.03 | 0.724 | 0.868 | 0.952 |
| LU99A | 0.783 | 1.04 | 0.989 | 0.964 | 1.11 | 0.819 | 0.872 |  | 0.884 | 0.756 |
| LXF-289 | 0.944 | 0.991 | 0.989 | 1.02 | 0.982 | 1.02 | 0.903 | 0.967 | 1.02 | 0.983 |
